The values below come from patent US10350164B2, “Process for preparing a dry powder formulation comprising an anticholinergic, a corticosteroid and a beta-adrenergic” (CHIESI FARMACEUTICI S.p.A., priority 2017, dated 2019).

Holding throughout (type): physicochemical
The nature of data set [1]: Uniformity of distribution of the active ingredients in the blend by HPLC. The protocol:
It is usually determined according to known methods, for instance by taking samples from different parts of the powder and testing the component by HPLC or other equivalent analytical methods.
The uniformity of distribution of the active ingredients was evaluated by withdrawing 12 samples from different parts of the blend and evaluated by HPLC.

Data set [2] in a line: Particle size distribution (PSD) by Malvern analysis, initially and after open-tray exposure. The procedure:
The size of the particles active is determined by measuring the characteristic equivalent sphere diameter, known as volume diameter, by laser diffraction. […] However, other equivalent apparatus may be used.
(§1) Thin layer (˜0.5 cm) in open tray for 3 days at 30° C./65% relative humidity (RH);
(§2) Thin layer (˜0.5 cm) in open tray for 4 hours at 25° C./90% RH
(i) particle size distribution (PSD) in terms of d(v0.1), d(v0.5) and d(v0.9) by Malvern analysis, […]

The nature of data set [3]: Specific Surface Area (SSA) by BET nitrogen adsorption. The protocol:
(§3) Co-micronized microparticles and reference micronized glycopyrronium bromide were exposed to the following conditions:
as §1, §2
(2) Specific Surface Area (SSA) by Brunauer-Emmett-Teller (BET) nitrogen adsorption method according to a known procedure, and […]

A short description of data set [4]: Recrystallization water by Dynamic Vapour Sorption (DVS). The protocol: as §3, §1, §2
(3) recrystallization of water using a Dynamic Vapour Sorption (DVS) instrument (Mettler Toledo GmbH, Switzerland).

Data set [5] in a line: Aerosol performance by Next Generation Impactor (NGI) from multidose dry powder inhaler. The note with it: for Mid Fine Particle Mass: between 2.0 and 5.0 micron; for Fine Particle Mass: particle size equal to or lower than 5.0 micron. The protocol: It is calculated by the percentage ratio of the fine particle mass (formerly fine particle dose) to the delivered dose.
The delivered dose is calculated from the cumulative deposition in the apparatus, while the fine particle mass is calculated from the deposition of particles having a diameter <5.0 microns.
After aerosolization of 3 doses from the inhaler device, the NGI apparatus was disassembled and the amounts of drug deposited in the stages were recovered by washing with a solvent mixture and then quantified by High-Performance Liquid Chromatography (HPLC).

[6] abbreviates: Open thin layer 4 hours at 25° C./90% RH.
[7] abbreviates: Open thin layer 3 days at 30° C./65% RH.
Setting [8] is: Example 3 formulation (6/100/12.5 μg).
[9] abbreviates: Example 4 formulation (6/100/25 μg).

As for `CCC(=O)OCC(=O)[C@@]1(OC(=O)CC)[C@@H](C)C[C@H]2[C@@H]3CCC4=CC(=O)C=C[C@]4(C)[C@@]3(Cl)[C@@H](O)C[C@@]21C` [BDP, beclometasone dipropionate], the Uniformity of distribution in data set [1] (Example 3 formulation (FF 6 μg/BDP 100 μg/GB 12.5 μg per 10 mg carrier), 12 samples, mean value±RSD) is given as 101.8 (±1.1); in data set [1] (Example 4 formulation (FF 6 μg/BDP 100 μg/GB 25 μg per 10 mg carrier)), 100.2 (±1.2).

As to `C[N+]1(C)CCC(OC(=O)C(O)(c2ccccc2)C2CCCC2)C1` (racemic) [GB, glycopyrronium bromide], in data set [2] (Initial), the “PSD D(v0.9)” value was 3.95 μm, the “PSD d(v0.1)” value stood at 0.60 μm and the “PSD d(v0.5)” value stood at 1.54 μm. Moreover, in data set [2] (setting [6]), the “PSD D(v0.9)” value came out at 1657 μm, the “PSD d(v0.1)” value turned out to be 2.74 μm and the “PSD d(v0.5)” value is 156 μm. In addition, in data set [2] (setting [7]), the “PSD D(v0.9)” value worked out at 7.59 μm, the “PSD d(v0.1)” value stood at 1.00 μm and the “PSD d(v0.5)” value was 3.91 μm. In data set [3] (Initial), this molecule came in with an SSA of 7.31 m^2/g. In addition, in data set [3] (setting [7]), the SSA stood at 1.85 m^2/g. Also, in data set [4] (Initial), the Re-crystallization water is listed as 0.12 % w/w. Moreover, the Re-crystallization water in data set [4] (setting [7]) stood at 0.02% w/w. Besides, in data set [5] (setting [8]), the “Extrafine Particle Fraction <1 μm” value turned out to be 15.4%, the “Extrafine Particle Fraction <2 μm” value is 37.6%, the “Extrafine Particle Mass <1 μm” value amounted to 1.8 µg and the “Extrafine Particle Mass <2 μm” value was 4.39 µg. In data set [5] (setting [8]), the “Fine Particle Fraction” value is 67.2%, the MMAD is recorded as 1.92 μm, the “Mid Fine particle Fraction” value was 29.6% and the “Mid Fine Particle Mass” value is 3.46 µg. The “Fine Particle Mass” value in data set [5] (setting [8]) is 7.85 µg. Further, the “Delivered Dose” value in data set [5] (Example 3 formulation (6/100/12.5 μg), mean±S.D) was 11.66 (±0.4) μg. For the same molecule, in data set [5] (setting [9]), the “Delivered Dose” value came to 21.30 µg, the “Extrafine Particle Fraction <1 μm” value turned out to be 8.2%, the “Extrafine Particle Fraction <2 μm” value amounted to 25.8% and the “Extrafine Particle Mass <1 μm” value worked out at 1.75 µg. Besides, in data set [5] (setting [9]), the “Extrafine Particle Mass <2 μm” value worked out at 5.49 µg, the “Fine Particle Fraction” value is 50.7%, the MMAD is reported as 2.15 μm and the “Mid Fine particle Fraction” value was determined as 27.9%. For the same molecule, in data set [5] (setting [9]), the “Mid Fine Particle Mass” value amounted to 5.94 µg and the “Fine Particle Mass” value amounted to 10.8 µg.
